# From patent US6558951B1, “Maturation of dendritic cells with immune response modifying compounds” (3M Innovative Properties Company, priority 1999, dated 2003)
# Key:
# Format in all cases: cell-based, human
# [1] = system: allogeneic T cells; assay: Allogeneic lymphocyte activation (primary MLR) by treated MO-DC: T cell proliferation and cytokines
# Experimental: Allogeneic Lymphocyte Activation. T-cells were isolated using T-Cell Purification Columns according to manufacturer's specifications (R&D Systems, Minneapolis, Minn). […] Dendritic cells were subsequently washed, resuspended in cRPMI and added at various concentrations (1-32×10^3 per well) to purified responder T-cells (1×10^5 per well) in 96-well flat-bottomed microtiter plates (BD Labware) in a total volume of 200 μl. […] Each well received 1 μCi [^3H]TdR and was harvested 18 hours later. Results are presented as mean CPM±SEM of triplicate wells. […] Cytokine Analysis. Cytokine levels were measured by ELISA. […] Human IL-6 kits were obtained from Biosource International (Camarillo, Calif.). Human IL-5, IL-8, MIP-1α, MCP-1 and RANTES were purchased from R&D Systems. All ELISA were run according to manufacturer's specifications. […] IFN-α and IFN-β specific antibodies were used to determine which type I IFN was present in the MO-DC supernatants. Results for all ELISAs are presented in pg/ml, whereas IFN results are presented in U/ml.
# [2] = system: monocyte-derived dendritic cells (MO-DC); assay: MO-DC cytokine and chemokine secretion (ELISA or bioassay of culture supernatants); details: for IFN-α: bioassay; for IFN-α / IL-6 / IL-8 / IL-12 / MCP-1 / MIP-1α / TNF-α: mean ± SEM
# Experimental: Generation of Monocyte-Derived Dendritic Cells (MO-DC). PBMC were isolated with Histopaque HybriMax-1077 density gradient (Sigma) from healthy volunteers after obtaining informed consent. CD14^+ cells were purified by positive selection using CD14^+ microbeads in conjunction with the MiniMACS system (Miltenyi Biotech, Auborn, Calif.) by following the manufacturer's instructions. Purity, as assessed by flow cytometry, was greater than 90%. […] Fresh medium containing GM-CSF and IL-4 was added every three days. MO-DC were routinely used between days 7 and 8 of culture. As a control, depleted lymphocytes were cultured in the same fashion. In Vitro MO-DC Stimulation. […] Cells were subsequently analyzed by flow cytometry for the expression of various cell surface markers, and the cell culture supernatants were analyzed for various cytokines and chemokines by ELISA. Cytokine Analysis. Cytokine levels were measured by ELISA. […] Human IL-6 kits were obtained from Biosource International (Camarillo, Calif.). Human IL-5, IL-8, MIP-1α, MCP-1 and RANTES were purchased from R&D Systems. All ELISA were run according to manufacturer's specifications. […] IFN-α and IFN-β specific antibodies were used to determine which type I IFN was present in the MO-DC supernatants. Results for all ELISAs are presented in pg/ml, whereas IFN results are presented in U/ml.
# [3] = system: syngeneic CD3-enriched peripheral blood T cells; assay: Autologous T cell activation by treated MO-DC (anamnestic response to tetanus toxoid)
# Experimental: Autologous T Cell Activation. Autologous T cells and R-848-treated MO-DC were prepared as described for allogeneic T cell stimulation. MO-DC were cultured with R-848 [2 μg/ml] and tetanus toxoid [10 μg/ml] for 24 hours. The MO-DC were washed and cultured at graded doses with PBMC-derived CD3^+ T cells for 7 days. Cell proliferation and analysis were determined as described. Supernatants were also collected; from the same cultures prior to pulsing with [^3H]TdR and analyzed for IFN-γ and IL-5.
# Cytokine Analysis. Cytokine levels were measured by ELISA. Human TNF-α, IL-12 (p40/p70), IFNγ, IL-4 and IL-2 kits were purchased from Genzyme (Cambridge, Mass.). Human IL-6 kits were obtained from Biosource International (Camarillo, Calif.). Human IL-5, IL-8, MIP-1α, MCP-1 and RANTES were purchased from R&D Systems. All ELISA were run according to manufacturer's specifications. IFN levels were; measured by bioassay (40). IFN-α and IFN-β specific antibodies were used to determine which type I IFN was present in the MO-DC supernatants. Results for all ELISAs are presented in pg/ml, whereas IFN results are presented in U/ml.
# [4] = system: monocyte-derived dendritic cells (MO-DC); assay: MO-DC cell surface maturation marker expression by flow cytometry
# Experimental: Generation of Monocyte-Derived Dendritic Cells (MO-DC). […] CD14^+ cells were purified by positive selection using CD14^+ microbeads in conjunction with the MiniMACS system (Miltenyi Biotech, Auborn, Calif.) by following the manufacturer's instructions. […] Fresh medium containing GM-CSF and IL-4 was added every three days. MO-DC were routinely used between days 7 and 8 of culture. As a control, depleted lymphocytes were cultured in the same fashion. In Vitro MO-DC Stimulation. […] Cells were subsequently analyzed by flow cytometry for the expression of various cell surface markers, and the cell culture supernatants were analyzed for various cytokines and chemokines by ELISA. Cell Surface and Intracellular Flow Cytometry. […] Cells (5-10^5) were incubated for 15 minutes incubation at 4° C. with purified IgD (Becton Dickinson) to block non-specific binding, and then the cells were stained for 30 minutes with the antibodies at 4° C. in PBS containing 10% FCS and 0.1% sodium azide. After washing in PBS, the cells were analyzed using a FACScan flow cytometer and Cell Quest software (Becton Dickinson).
# [5] = MO-DC treated with 2 and 8 μg/ml, MLR supernatants, 96 hours
# [6] = 0.1 μg/ml, 24 hours, MO-DC supernatant
# [7] = 0.4 μg/ml, 24 hours, MO-DC supernatant
# [8] = 2.0 μg/ml, 24 hours, MO-DC supernatant
# [9] = 8.0 μg/ml, 24 hours, MO-DC supernatant
# [10] = treatment time 1 hr, 2 μg/ml R-848 or 1 μg/ml LPS
# [11] = treatment time 6 hr, 2 μg/ml R-848 or 1 μg/ml LPS
# [12] = treatment time 24 hr, 2 μg/ml R-848 or 1 μg/ml LPS
# [13] = MO-DC treated with 2 μg/ml and 10 μg/ml tetanus toxoid 24 hours, 7 days co-culture
# [14] = 0.1 μg/ml, 24 hours, vs vehicle
compound,measurement,setting,value
"CCOCc1nc2c(N)nc3ccccc3c2n1CC(C)(C)O [R-848, 4-amino-2-ethoxymethyl-α,α-dimethyl-1H-imidazo [4,5-c]quinoline-1-ethanol]",allogeneic T cell proliferation vs untreated MO-DC,[1]; MO-DC treated for 6 hours,significantly enhanced
same,allogeneic T cell proliferation vs untreated MO-DC,[1]; MO-DC treated for less than 6 hours,not significantly increased
same,enhancement of IFN-γ production vs untreated MO-DC cultures,[1]; [5],2- to 3 fold
same,enhancement of IL-2 production vs untreated MO-DC cultures,[1]; [5],2- to 3 fold
same,enhancement of IL-5 production vs untreated MO-DC cultures,[1]; [5],2- to 3 fold
same,"IL-2, IL-5 or IFN-γ production by T cells","[1]; T cells cultured in the presence of compound, without added MO-DC",do not produce
same,IFN-α,[2]; [6],8 ± 3 U/ml
same,IL-6,[2]; [6],20 ± 12 pg/mL
same,IL-8,[2]; [6],425 ± 132 pg/mL
same,IL-12,[2]; [6],70 ± 21 pg/mL
same,MCP-1,[2]; [6],3603 ± 2158 pg/mL
same,MIP-1α,[2]; [6],57 ± 57 pg/mL
same,TNF-α,[2]; [6],6 ± 3 pg/mL
same,IFN-α,[2]; [7],8 ± 3 U/ml
same,IL-6,[2]; [7],399 ± 208 pg/mL
same,IL-8,[2]; [7],5125 ± 2430 pg/mL
same,IL-12,[2]; [7],106 ± 27 pg/mL
same,MCP-1,[2]; [7],4864 ± 2213 pg/mL
same,MIP-1α,[2]; [7],511 ± 314 pg/mL
same,TNF-α,[2]; [7],14 ± 4 pg/mL
same,stimulation time for maximal IL-12 secretion,[2]; 2 μg/ml R-848 or 1 μg/ml LPS,between six and twenty four hours
same,stimulation time for maximal TNF-α secretion,[2]; 2 μg/ml R-848 or 1 μg/ml LPS,between one and six hours
same,IFN-α,[2]; [8],27 ± 7 U/ml
same,IL-6,[2]; [8],6729 ± 1888 pg/mL
same,IL-8,[2]; [8],50092 ± 10385 pg/mL
same,IL-12,[2]; [8],15984 ± 3860 pg/mL
same,MCP-1,[2]; [8],12941 ± 5802 pg/mL
same,MIP-1α,[2]; [8],15412 ± 5244 pg/mL
same,TNF-α,[2]; [8],1540 ± 371 pg/mL
same,IFN-α,[2]; [9],41 ± 12 U/ml
same,IL-6,[2]; [9],9690 ± 1269 pg/mL
same,IL-8,[2]; [9],66988 ± 11863 pg/mL
same,IL-12,[2]; [9],19640 ± 3966 pg/mL
same,MCP-1,[2]; [9],16249 ± 7661 pg/mL
same,MIP-1α,[2]; [9],25956 ± 5782 pg/mL
same,TNF-α,[2]; [9],2208 ± 240 pg/mL
same,inhibition of induced IFN bioactivity by neutralizing IFN-α,"[2]; MO-DC supernatants, IFN bioassay",greater than 95%
same,IL-12,[2]; [10],65 ± 18 pg/mL
same,TNF-α,[2]; [10],32 ± 10 pg/mL
same,IL-12,[2]; [11],4446 ± 2438 pg/mL
same,TNF-α,[2]; [11],1053 ± 707 pg/mL
same,IL-12,[2]; [12],13153 ± 5484 pg/mL
same,TNF-α,[2]; [12],335 ± 201 pg/mL
same,IFN-γ production vs MO-DC cultured only with tetanus toxoid antigen,[3]; [13],4- to 11 fold
same,increase of syngeneic T cell proliferation vs MO-DC not treated with R-848,[3]; [13],2to 3 fold
same,IL-5 in culture supernatants,"[3]; MO-DC treated with 2 μg/ml and 10 μg/ml tetanus toxoid, autologous MO-DC/T cell system",not detected
same,CD83 cell surface expression,[4]; [14],no increase
same,CD86 cell surface expression,[4]; [14],no increase
same,increase in CD40 expression over vehicle treated MO-DC,"[4]; 2 μg/ml, 24 hours",2 fold
same,increase in CD80 expression over vehicle treated MO-DC,"[4]; 2 μg/ml, 24 hours",2 fold
same,maximal average increase in CD80 expression (MFI),"[4]; 2 μg/ml, 24 hours",3- to 4 fold
same,maximal average increase in CD86 expression (MFI),"[4]; 2 μg/ml, 24 hours",3- to 4 fold
same,decrease in CD1a expression,"[4]; 2 μg/ml, 24 hours, vs vehicle",not statistically significant
same,increase in cell surface HLA-DR expression,"[4]; 2 μg/ml, 24 hours, vs vehicle",not quantitatively significant
same,culture time giving maximal DC maturation marker expression,"[4]; 2 μg/ml, 24, 48, 72 and 96 hour stimulation examined",24 h
same,CD86 expression,"[4]; 0.4, 2 and 8 μg/ml, 24 hours, vs vehicle",Enhanced
same,cell surface expression of CD83,"[4]; 2 and 8 μg/ml, 24 hours, vs vehicle",Enhanced
same,CD83 expression,"[4]; pulsed 6 hours, stained immediately, 2 μg/ml R-848 or 1 μg/ml LPS",significant increase
same,"CD40, CD80, CD86 and HLA-DR expression","[4]; pulsed 6 hours, stained immediately, 2 μg/ml R-848 or 1 μg/ml LPS, vs medium control",not statistically significant
same,CD83 and CD40 expression,"[4]; pulsed 6 hours, washed, re-cultured 18 hours, 2 μg/ml R-848 or 1 μg/ml LPS",significant increase
same,"expression of CD83, CD80, CD86, CD40 or HLA-DR","[4]; pulsed one hour with 2 μg/ml R-848 or 1 μg/ml LPS, then stained",did not show enhanced expression
same,"expression of CD83, CD80, CD86, CD40 or HLA-DR","[4]; pulsed one hour, washed, re-cultured 23 hours, 2 μg/ml R-848 or 1 μg/ml LPS",did not show enhanced expression
